The record followed here is BindingDB's records for doi:10.1016/j.bmcl.2006.08.060 (Lucknow University, 2006).

The test has as its system Enterococcus faecalis. In words: Antibacterial activity against Streptococcus faecalis by broth microdilution technique. Background: In broth dilution the organism is exposed to a series of concentrations in liquid medium.

Turning to `CNC(C)[C@@H]1CC[C@@H](N)[C@@H](O[C@H]2[C@H](O)[C@@H](O[C@H]3OC[C@](C)(O)[C@H](NC)[C@H]3O)[C@H](N)C[C@@H]2N)O1` (stereo partly specified) [Gentamicin], the IC50 (as a rule, the concentration at which inhibition is half-maximal) was 445 nM.
